Test results from US5008267A, “Pyrimidinedione compounds, method of producing the same and antiarrythmic agents containing the same” (Mitsui Toatsu Chemicals, Incorporated, priority 1988, dated 1991).
Structures can show the parent of a compound that is named as a salt.

Key:
[1] = Toxicity test, mortality rate 24 hours after administration; conditions: mouse, in vivo, po, 300 mg/kg (p.o.)
Experimental: Each of the compounds prepared in the above-mentioned examples was administered into a mouse (ddY strain, male). In each case, oral administration (p.o.) and intra peritoneal administration (i.p.) were separately carried out in a dose of 300 mg/kg and 250 mg/kg, respectively.
A mortality rate (number of specimens: one group=2 to 4 mice) of the mice 24 hours after the administration was calculated, and the results are set forth in Table 3.
Following the same procedure as in Toxicity Test 1, toxicity of the respective compounds prepared in the above examples in Table 5 was tested to calculate a mortality rate of mice.
Administration was made by oral administration (p.o.) in an amount of 300 mg/kg of each compound for one mouse.
Following the same procedure as in Toxicity Test 1, toxicity of the respective compounds prepared in the above examples in Table 7 was tested to calculate a mortality rate of mice.

[2] = system: Purkinje fiber of the right ventricular free wall (myocardial action potential); assay: Influence on myocardial action potential duration time (APD75), isolated right ventricular free wall, microelectrode in Purkinje fiber; format: cell-based, dog; conditions: Canis lupus familiaris, 20 min, 20 minutes' incubation; for activation at 1 µg/mL: 1.0 μg/ml; for activation at 1 µg/mL / activation at 3 µg/mL / activation at 10 µg/mL: (B-A)/A×100, read-out: APD75 (%); for activation at 3 µg/mL: 3.0 μg/ml; for activation at 10 µg/mL: 10.0 μg/ml; for activation at 0.3 µg/mL: 0.3 μg/ml, (B-A)/A×100
[3] = system: ventricular muscle refractory period; assay: Influence on ventricular muscle refractory period (ERP); format: in vivo, mongrel dog; conditions: Canis lupus familiaris, iv, i.v., (W-Y)/Y×100, read-out: ERP (%; extensibility of refractory period)
Experimental: (2) Influence on ventricular muscle refractory period Refractory periods were measured in the following manner before and after each of the compounds and d-sotalol shown in Table 2 was separately administered to a vein or a duodenum, and ERP (%; extensibility of refractory period) was calculated from the measured values: ERP (%)=(W-Y)/Y×100 W: Refractory period after administration Y: Refractory period before administration To a mongrel adult dog, 30 mg/kg of pentobarbital was administered intravenously, and after being anesthetized, a pair of silver-silver chloride electrodes separated by 3 mm was sewn on an opened right ventricule, and electrical stimulation was given at an interval of 400 msec at a duration time of 4 msec under a current twice as much as the threshold. Afterward, a small amount of alcohol was injected into a sinus artery in order to extinguish a pacemaker activity, and the ventricular refractory period (ERP) was measured under ventricule pacing. That is, each 1 train comprised 10 stimulations having intervals of 400 msec, and an interval between the trains was usually 400 msec. However, this interval was shortened 10 msec by 10 msec at the time of the refractory period measurement, and an interval between the trains at the time when reaction to the first stimulation of the train disappeared was regarded as the refractory period. In this case, the electrical stimulation was fed in accordance with a program by a heart stimulation device (Diamedical Co., Ltd.; DHM-226-3).

| SMILES | mortality at 24 h [1] [%] | activation at 1 µg/mL [2] [%] | activation at 3 µg/mL [2] [%] | activation at 10 µg/mL [2] [%] | change in vivo at 0.1 mg/kg [3] [%] | change in vivo at 0.3 mg/kg [3] [%] | change in vivo at 1 mg/kg [3] [%] | change in vivo at 3 mg/kg [3] [%] | activation at 0.3 µg/mL [2] [%] |
| --- | --- | --- | --- | --- | --- | --- | --- | --- | --- |
| Cn1c(N2CCN(CCCOc3ccc([N+](=O)[O-])cc3C(O)c3ccccc3)CC2)cc(=O)n(C)c1=O (stereo not drawn) [Compound 148, 1,3-dimethyl-6-{4-<3-[2-(α-hydroxybenzyl)-4-nitrophenyloxy]propyl>piperazin-1-yl}-2,4(1H,3H)-pyrimidinedione oxalate] | 0 | – | – | – | – | – | – | – | – |
| Cn1c(N2CCN(c3ccc([N+](=O)[O-])cc3C(=O)c3ccccc3)CC2)cc(=O)n(C)c1=O [Compound 128, 1,3-dimethyl-6-{4-(2-benzoyl-4-nitrophenyl)piperazin-1-yl}-2,4(1H,3H)-pyrimidinedione oxalate] | 0 | – | – | – | – | – | – | – | – |
| Cn1c(N2CCN(CCOc3ccc([N+](=O)[O-])cc3C(=O)c3ccc(Br)cc3)CC2)cc(=O)n(C)c1=O [Compound 100] | 0 | – | – | – | – | – | – | – | – |
| Cn1c(N2CCN(CCCOc3ccc(Cl)cc3[N+](=O)[O-])CC2)cc(=O)n(C)c1=O [Compound 140, 1,3-dimethyl-6-{4-[3-(4-chloro-2-nitrophenoxy)propyl]piperazin-1-yl}-2,4(1H,3H)-pyrimidinedione hydrochloride] | – | 6 | 17 | 29 | 0 | 3.55 | 3.55 | – | – |
| Cn1c(N2CCN(CCNC(=O)c3ccc([N+](=O)[O-])cc3)CC2)cc(=O)n(C)c1=O [Compound 45, 1,3-dimethyl-6-{4-[2-(4-nitrobenzoylamino)ethyl]piperazin-1-yl}-2,4(1H,3H)-pyrimidinedione hydrochloride] | 0 | – | – | – | – | – | – | – | – |
| Cn1c(N2CCN(CCCOc3ccccc3[N+](=O)[O-])CC2)cc(=O)n(C)c1=O [Compound 55, 1,3-dimethyl-6-{4-[3-(2-nitrophenoxy)propyl]piperazin-1-yl}-2.4(1H,3H)-pyrimidinedione hydrochloride] | – | – | 18 | 39 | 0 | 0 | 6.8 | 13.6 | – |
| CC(=O)c1cc([N+](=O)[O-])ccc1OCCCN1CCN(c2cc(=O)n(C)c(=O)n2C)CC1 [Compound 76, 1,3-dimethyl-6-{4-[3-(2-acetyl-4-nitrophenoxy)propyl]piperazin-1-yl}-2,4(1H,3H)-pyrimidinedione oxalate] | – | 16 | 21 | – | 2.4 | 4.3 | 12.6 | 16.5 | – |
| CC(=O)c1ccc(OCCCN2CCN(c3cc(=O)n(C)c(=O)n3C)CC2)c([N+](=O)[O-])c1 [Compound 77, 1,3-dimethyl-6-{4-[3-(4-acetyl-2-nitrophenoxy)propyl]piperazin-1-yl}-2,4(1H,3H)-pyrimidinedione oxalate] | 0 | – | – | – | – | – | – | – | – |
| COc1cc([N+](=O)[O-])ccc1OCCCN1CCN(c2cc(=O)n(C)c(=O)n2C)CC1 [Compound 164, 1,3-dimethyl-6-{4-[3-(2-methoxy-4-nitrophenyloxy)propyl]piperazin-1-yl}-2,4(1H,3H)-pyrimidinedione hydrochloride] | – | – | 8 | 12 | 0 | 7.7 | 15.4 | 15.4 | – |
| COC(=O)c1ccc(OCCCN2CCN(c3cc(=O)n(C)c(=O)n3C)CC2)c([N+](=O)[O-])c1 [Compound 154, 1,3-dimethyl-6-{4-[3-(4-methoxycarbonyl-2-nitrophenyloxy)propyl]piperazin-1-yl}-2,4(1H,3H)-pyrimidinedione oxalate] | – | 9 | 12 | 20 | 0 | 0 | 5.9 | 11.8 | – |
| Cn1c(N2CCN(CCCOc3ccc([N+](=O)[O-])c(C(F)(F)F)c3)CC2)cc(=O)n(C)c1=O [Compound 150, 1,3-dimethyl-6-{4-[3-(3-trifluoromethyl-4-nitrophenyloxy)propyl]piperazin-1-yl}-2,4(1H,3H)-pyrimidinedione oxalate] | – | – | 16 | – | 0 | 0 | 6.3 | 6.3 | – |
| CCN(CCNc1cc(=O)n(C)c(=O)n1C)CCc1ccc([N+](=O)[O-])cc1 [Compound 21] | – | 13 | 27 | 37 | 7 | 10 | 14 | 14 | – |
| Cn1c(N2CCN(CC(O)c3ccc([N+](=O)[O-])cc3)CC2)cc(=O)n(C)c1=O (stereo not drawn) [Compound 44, 1,3-dimethyl-6-{4-[2-hydroxy-2-(4-nitrophenyl)ethyl]piperazin-1-yl}-2,4-(1H,3H)-pyrimidinedione hydrochloride] | – | 5 | 13 | 21 | 0 | 7.7 | 19.9 | 27.8 | – |
| Cn1c(NCCN(CCCc2ccc([N+](=O)[O-])cc2)CCOC(=O)c2ccccc2)cc(=O)n(C)c1=O [Compound 168, 1,3-dimethyl-6-{2-[N-(2-benzoyloxyethyl)-3-(4-nitrophenyl)propylamino]ethylamino}-2,4(1H,3H)-pyrimidinedione oxalate] | – | 48 | 55 | 68 | 6 | 12 | 18 | 18 | – |
| Cn1c(NCCN2CCN(c3ccc([N+](=O)[O-])cc3)CC2)cc(=O)n(C)c1=O [Compound 64, 1,3-dimethyl-6-{2-[4-(4-nitrophenyl)piperazin-1-yl]ethylamino}-2,4(1H,3H)-pyrimidinedione oxalate] | – | 23 | 32 | – | 21.4 | 28.6 | 28.6 | – | 8 |
| Cn1c(N2CCN(CCOc3ccc([N+](=O)[O-])cc3)CC2)cc(=O)n(C)c1=O [Compound 53, 1,3-dimethyl-6-{4-[2-(4-nitrophenoxy)ethyl]piperazin-1-yl}-2,4(1H,3H)-pyrimidinedione hydrochloride] | – | 8 | 22 | 43 | 8.8 | 23 | 30.1 | – | – |
| Cn1c(N2CCN(CC(=O)c3ccc([N+](=O)[O-])cc3)CC2)cc(=O)n(C)c1=O [Compound 42, 1,3-dimethyl-6-[4-(4-nitrophenacyl)piperazin-1-yl]-2,4(1H,3H)-pyrimidinedione hydrochloride] | – | 2 | 10 | 17 | 4.6 | 9.4 | 11.7 | 18.4 | – |
| CC(C)NC[C@@H](O)c1ccc(NS(C)(=O)=O)cc1 [d-sotalol, reference compound] | – | 3 | 7.4 | 15.8 | 1.7 | 6.7 | 8.7 | 15.5 | 0 |
| Cn1c(N2CCN(CCCOc3ccc([N+](=O)[O-])cc3)CC2)cc(=O)n(C)c1=O [Compound 35, 1,3-dimethyl-6-{4-[3-(4-nitrophenoxy)propyl]piperazin-1-yl}-2,4(1H,3H)-pyrimidinedione hydrochloride] | – | 17 | 22 | 30 | 6 | 12 | 15.8 | 25.3 | – |
